Like-named read-outs stand apart in the source and are kept apart here.
How the values were obtained:
[1] = target: T1, recombinantly expressed His-tagged protein corresponding to amino acids 575-869 of human Tyk2 (Homo sapiens, UniProt P29597); assay: Probe displacement assay (scintillation proximity, tritiated probe); type: binding; conditions: His-tagged Tyk2 (575-869) 2.5 nM, 40 nM radiolabeled probe, 30 minutes at room temperature
T1 construct: made in house
Description: The preparation of radiolabeled probe, (R)—N-(1-(3-(8-methyl-5-(methylamino)-8H-imidazo[4,5-d]thiazolo[5,4-b]pyridin-2-yl)phenyl)ethyl)-2-([^3H]methylsulfonyl)benzamide, was performed as described below: […]

[2] = tested on: IL-23 stimulated Kit225 T cells with a stably-integrated STAT-dependent luciferase reporter; assay: Kit225 T cell assay, IL-23 stimulated STAT-dependent luciferase reporter; type: cell-based, human
Description: (§1) Kit225 T cells with a stably-integrated STAT-dependent luciferase reporter were plated in RPMI (GIBCO) containing 10% heat-inactivated FBS (GIBCO) and 100 U/mL PenStrep (GIBCO). The cells were then stimulated with either 20 ng/mL human recombinant IL-23 or 200 U/mL human recombinant IFNα (PBL InterferonSource) for 5-6 hours. Luciferase expression was measured using the STEADY-GLO Luciferase Assay System (PROMEGA) according to the manufacturer's instructions.

[3] = tested on: IFNα stimulated Kit225 T cells with a stably-integrated STAT-dependent luciferase reporter; assay: Kit225 T cell assay, IFNα stimulated STAT-dependent luciferase reporter; type: cell-based, human
Description: as §1

[4] = KIT225, 20 ng/mL human recombinant IL-23, 5-6 hours, luciferase, read-out: IL-23 Kit225 Reporter, (IC50)
[5] = KIT225, 200 U/mL human recombinant IFNα, 5-6 hours, luciferase, read-out: IFNa Kit225 Reporter, (IC50)
[6] = Homo sapiens, KIT225, read-out: IL-23 Kit225 Reporter, (IC50, uM)
[7] = Homo sapiens, KIT225, read-out: IFNa Kit225 Reporter, (IC50, uM)
[8] = Homo sapiens, KIT225, 20 ng/mL human recombinant IL-23, 5-6 hours, luciferase, read-out: IL-23 Kit225 Reporter, (IC50)
[9] = Homo sapiens, KIT225, 200 U/mL human recombinant IFNα, 5-6 hours, luciferase, read-out: IFNa Kit225 Reporter, (IC50)

T1 sequence (P29597 with tags, fused parts or gaps): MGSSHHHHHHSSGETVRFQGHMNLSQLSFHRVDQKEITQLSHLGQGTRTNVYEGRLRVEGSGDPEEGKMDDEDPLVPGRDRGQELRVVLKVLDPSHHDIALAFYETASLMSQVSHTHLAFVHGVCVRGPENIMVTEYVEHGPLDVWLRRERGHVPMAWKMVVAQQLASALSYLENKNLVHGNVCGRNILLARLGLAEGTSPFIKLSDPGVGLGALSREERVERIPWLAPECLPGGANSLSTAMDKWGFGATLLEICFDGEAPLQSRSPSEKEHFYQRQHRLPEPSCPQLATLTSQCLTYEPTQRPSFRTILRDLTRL

| SMILES | EC50 [1] | IC50 [2, 4] | IC50 [3, 5] | IC50 [2, 6] | IC50 [3, 7] | IC50 [2, 8] | IC50 [3, 9] |
| --- | --- | --- | --- | --- | --- | --- | --- |
| COCCNc1cc(Nc2cc(C)cc(C)c2)nn2c(C(N)=O)cnc12 [Example 56] | 70 nM | 2.12 µM | 1.79 µM |  |  |  |  |
| Cc1cc(C)cc(Nc2cc(NCCN(C)C)c3ncc(C(N)=O)n3n2)c1 [Example 58] | 80 nM |  |  | 1.55 µM | 2.96 µM |  |  |
| Cc1cc(F)cc(Nc2cc(NCC(F)(F)F)c3ncc(C(N)=O)n3n2)c1 [Example 59] | 160 nM | 9.48 µM | 12.5 µM |  |  |  |  |
| Cc1cc(C)cc(Nc2cc(Nc3cncs3)c3ncc(C(N)=O)n3n2)c1 [Example 61] | 50 nM | 2.63 µM | 1.94 µM |  |  |  |  |
| Cc1cc(C)cc(Nc2cc(Nc3cc(C)n(C)n3)c3ncc(C(N)=O)n3n2)c1 [Example 62] | 300 nM | 13.2 µM | 11 µM |  |  |  |  |
| Cc1cc(C)cc(Nc2cc(Nc3cnccn3)c3ncc(C(N)=O)n3n2)c1 [Example 63] | 280 nM | 12.5 µM | 12.5 µM |  |  |  |  |
| Cc1cc(C)cc(Nc2cc(Nc3cccnc3)c3ncc(C(N)=O)n3n2)c1 [Example 64] | 70 nM | 12.5 µM | 12.5 µM |  |  |  |  |
| Cc1cc(C)cc(Nc2cc(N)c3ncc(C(N)=O)n3n2)c1 [Example 67] | 10 nM | 0.7 µM | 0.73 µM |  |  |  |  |
| Cc1cc(F)cc(Nc2ccc3ncc(C(=O)NC4CC4)n3n2)c1 [Example 68] | 2.26 nM |  |  |  |  | 0.95 µM | 0.86 µM |
| CNc1nc(Nc2cc(C)cc(C)c2)nn2c(C(N)=O)cnc12 [Example 69] | 5.44 nM | 0.42 µM | 0.15 µM |  |  |  |  |
| Cc1cc(C)cc(Nc2nc(NC3CC3)c3ncc(C(N)=O)n3n2)c1 [Example 70] | 80 nM | 11.2 µM | 12.5 µM |  |  |  |  |
| Cc1cc(F)cc(Nc2nc(NC3CC3)c3ncc(C(N)=O)n3n2)c1 [Example 71] | 140 nM | 2.97 µM | 12.5 µM |  |  |  |  |
| CNc1nc(Nc2cc(C)cc(F)c2)nn2c(C(N)=O)cnc12 [Example 73] | 7.75 nM | 0.28 µM | 0.14 µM |  |  |  |  |
| CNc1nc(Nc2ccccc2OC)nn2c(C(N)=O)cnc12 [Example 74] | 10 nM | 0.3 µM | 0.2 µM |  |  |  |  |
| CNc1cc(Nc2c(OC)ccc(F)c2F)nn2c(C(=O)NC3CC3)cnc12 [Example 75] | 2.09 nM |  |  |  |  | 0.1 µM | 0.05 µM |
| CNc1cc(N(C)c2ccccc2)nn2c(C(=O)NC3CC3)cnc12 [Example 76] | 50 nM |  |  |  |  | 3.55 µM | 2.79 µM |
| CNc1cc(Nc2ccccc2OC)nn2c(C(=O)NC3CC3)cnc12 [Example 77] | 4.02 nM |  |  |  |  | 0.03 µM | 0.01 µM |
| CNc1cc(N2CCc3ccccc32)nn2c(C(=O)NC3CC3)cnc12 [Example 78] | 8.17 nM | 0.18 µM | 0.07 µM |  |  |  |  |
| CNc1cc(Nc2cc(F)cc(F)c2OC)nn2c(C(=O)NC3CC3)cnc12 [Example 79] | 6.95 nM |  |  |  |  | 0.07 µM | 0.05 µM |
| CNc1cc(Nc2ccccc2OC)nn2c(C(=O)NCC(C)(C)O)cnc12 [Example 80] | 4.83 nM | 0.15 µM | 0.12 µM |  |  |  |  |

| SMILES | EC50 [1] | IC50 [2, 4] | IC50 [3, 5] | IC50 [2, 6] | IC50 [3, 7] | IC50 [2, 8] | IC50 [3, 9] |
| --- | --- | --- | --- | --- | --- | --- | --- |
| CNc1cc(Nc2cc(F)cc(F)c2OC)nn2c(C(=O)NCC(C)(C)O)cnc12 [Example 81] | 7.26 nM | 0.27 µM | 0.23 µM |  |  |  |  |
| CNc1cc(Nc2cccc3c2OCCO3)nn2c(C(=O)NCC(C)(C)O)cnc12 [Example 82] | 10 nM | 0.18 µM | 0.09 µM |  |  |  |  |
| CNc1cc(Nc2cc(F)cc(F)c2OC)nn2c(C(N)=O)cnc12 [Example 83] | 5.76 nM | 0.17 µM | 0.06 µM |  |  |  |  |
| CNc1cc(Nc2cccc(-n3cccn3)n2)nn2c(C(=O)NC3CC3)cnc12 [Example 85] | 9.31 nM | 0.04 µM | 0.03 µM |  |  |  |  |
| CNc1cc(Nc2cccc(-c3ccccc3)n2)nn2c(C(=O)NC3CC3)cnc12 [Example 86] | 20 nM |  |  |  |  | 0.29 µM | 0.3 µM |
| CNc1cc(Nc2cccc(N3CCOC3=O)n2)nn2c(C(=O)NC3CC3)cnc12 [Example 87] | 4.31 nM | 0.09 µM | 0.06 µM |  |  |  |  |
| CNc1cc(Nc2cccc(N3CCCC3=O)n2)nn2c(C(=O)NC3CC3)cnc12 [Example 88] | 8.34 nM | 0.01 µM | 0.02 µM |  |  |  |  |
| CNc1cc(Nc2cccc(-n3ccc(C(F)(F)F)n3)n2)nn2c(C(=O)NC3CC3)cnc12 [Example 89] | 10 nM | 0.39 µM | 0.44 µM |  |  |  |  |
| CNc1cc(Nc2cccc(N3CCC(O)C3=O)n2)nn2c(C(=O)NC3CC3)cnc12 (stereo not drawn) [Example 90] | 3.9 nM | 0.7 µM | 0.14 µM |  |  |  |  |
| CNc1cc(Nc2cccnc2-n2cccn2)nn2c(C(=O)NC3CC3)cnc12 [Example 92] | 30 nM |  |  |  |  | 0.4 µM | 0.21 µM |
| CNc1cc(Nc2cncc(OC)c2)nn2c(C(=O)NC3CC3)cnc12 [Example 93] | 10 nM |  |  |  |  | 1.1 µM | 0.41 µM |
| CNc1cc(Nc2cccnc2OC)nn2c(C(=O)NC3CC3)cnc12 [Example 94] | 1.37 nM |  |  |  |  | 0.02 µM | 0.03 µM |
| CNc1cc(Nc2cccnc2F)nn2c(C(=O)NC3CC3)cnc12 [Example 95] | 20 nM |  |  |  |  | 0.37 µM | 0.27 µM |
| CNc1cc(Nc2cncc(C)c2)nn2c(C(=O)NC3CC3)cnc12 [Example 96] | 7.18 nM |  |  |  |  | 0.51 µM | 0.6 µM |
| CNc1cc(Nc2cccnc2C)nn2c(C(=O)NC3CC3)cnc12 [Example 97] | 30 nM |  |  |  |  | 0.42 µM | 0.65 µM |
| CNc1cc(Nc2cccnc2-n2nc(C)cc2C(F)(F)F)nn2c(C(=O)NC3CC3)cnc12 [Example 100] | 140 nM | 12.5 µM | 12.5 µM |  |  |  |  |
| CNc1cc(Nc2cccnc2-n2ccc(C)n2)nn2c(C(=O)NC3CC3)cnc12 [Example 101] | 270 nM |  |  |  |  | 7.19 µM | 5.79 µM |
| CCNC(=O)c1ncccc1Nc1cc(NC)c2ncc(C(=O)NC3CC3)n2n1 [Example 103] | 160 nM |  |  | 0.47 µM | 0.36 µM |  |  |
| O=C(NC1CC1)c1cnc2c(NCCN3CCOCC3)cc(Nc3cccc4c3OCCO4)nn12 [Example 110] | 7.52 nM | 0.16 µM | 0.12 µM |  |  |  |  |
| CNc1cc(Nc2cccc(-c3ccc(C(F)(F)F)cc3F)c2)nn2c(C(=O)NC3CC3)cnc12 [Example 116] | 65.5 nM | 1.1 µM | 1.2 µM |  |  |  |  |
